From ChEMBL document CHEMBL1201862, “PubChem BioAssay data set” (2004) come the findings set out here.

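In this assay, cells in 96-well plates receive the compound at five concentrations for 48 hours. Endpoints are linearly interpolated between the surrounding concentrations. GI50: concentration for 50% inhibition of growth.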 The source made the active and inactive calls. Cut-off read from the data, not from the text of the source: active = GI50 up to about 1.1 µM and inactive = higher.

Test systems include SK-MEL-28; HCT-15; HCC 2998; NCI/ADR-RES; KM12; PC-3; IGROV-1; SK-OV-3; RPMI-8226; SNB-19; NCI-H522; Hs-578T; RXF 393; SF-268; UO-31; OVCAR-8; T47D; HOP-92.
Assay in all cases: NCI-60 cell line screen, 48 h

`Cc1cc(S(=O)(=O)Nc2nnc3cc(C(F)(F)F)cc(C)n23)c(S)cc1Cl`: the GI50 in the test with SK-MEL-28 was > 100 µM (inactive); in the test with HCT-15 it was > 91.6 µM; in the test on HCC 2998, 33.7 µM (inactive); in the test with NCI/ADR-RES, 45.5 µM (inactive); with KM12 it was 45.6 µM (inactive); with PC-3, > 95.3 µM (inactive). For the same compound, the GI50 was > 100 µM (inactive) in the test with IGROV-1; 38.3 µM (inactive) in the test on SK-OV-3; > 100 µM (inactive) in the test on RPMI-8226; 27.5 µM (inactive) in the test on SNB-19; > 100 µM (inactive) in the test with NCI-H522; > 72.4 µM (inactive) in the test on Hs-578T. Moreover, the GI50 is > 100 µM (inactive) in the test with RXF 393; > 100 µM (inactive) in the test on SF-268; 39.1 µM (inactive) with UO-31; > 100 µM (inactive) with OVCAR-8; > 100 µM (inactive) with T47D; > 76.9 µM (inactive) in the test with HOP-92.

`Cc1ccc(-c2nc3cc([N+](=O)[O-])ccc3[nH]2)cc1`: the GI50 was > 100 µM (inactive) in the test with SK-MEL-28; 52.8 µM in the test on HCT-15; 43.4 µM (inactive) in the test on HCC 2998; 40.8 µM (inactive) in the test on NCI/ADR-RES; 54 µM (inactive) in the test on KM12; 38.9 µM (inactive) in the test on PC-3. For the same compound, the GI50 was > 100 µM (inactive) in the test on IGROV-1; > 100 µM (inactive) with SK-OV-3; 43.1 µM (inactive) with RPMI-8226; > 100 µM (inactive) in the test with SNB-19; 41.7 µM (inactive) with NCI-H522; > 100 µM (inactive) in the test with Hs-578T. Further, the GI50 with RXF 393 was > 100 µM (inactive); with SF-268, > 100 µM (inactive); in the test on UO-31, 57.8 µM (inactive); in the test with OVCAR-8, 93.1 µM (inactive); in the test with T47D, 39.6 µM (inactive); in the test on HOP-92 it was > 100 µM (inactive).

In the case of `CCn1c(=O)c2cn[nH]c2n(C)c1=O`, the GI50 is > 100 µM (inactive) with SK-MEL-28; > 100 µM with HCT-15; > 100 µM (inactive) with HCC 2998; > 100 µM (inactive) with NCI/ADR-RES; > 100 µM (inactive) in the test on KM12; > 100 µM (inactive) in the test on PC-3. The GI50 in the test with IGROV-1 is 66.7 µM (inactive); with SK-OV-3, > 100 µM (inactive); in the test with RPMI-8226, > 100 µM (inactive); in the test on SNB-19 it was > 100 µM (inactive); in the test with NCI-H522, > 100 µM (inactive); in the test on Hs-578T it was > 100 µM (inactive). The GI50 in the test on RXF 393, with SF-268, with UO-31, in the test with OVCAR-8, with T47D and with HOP-92 was > 100 µM (inactive) throughout.

Consider `O=c1cc(-c2ccccc2)[nH]c2ccc(N3CCOCC3)cc12`, for which the GI50 in the test with SK-MEL-28 was 0.0128 µM (active); with HCT-15, 0.0241 µM; in the test on HCC 2998 it was 0.0468 µM (active); in the test with NCI/ADR-RES, 0.0435 µM (active); in the test on KM12, < 0.0171 µM (active); with PC-3, 0.0346 µM (active). Moreover, the GI50 was 0.0518 µM (active) in the test with IGROV-1; 0.0327 µM (active) with SK-OV-3; 0.065 µM (active) in the test with RPMI-8226; 0.0434 µM (active) in the test with SNB-19; 0.0173 µM (active) in the test on NCI-H522; 0.0239 µM (active) with Hs-578T. In addition, the GI50 is 0.04 µM (active) in the test with RXF 393; 0.0407 µM (active) with SF-268; 13.2 µM (inactive) with UO-31; 0.042 µM (active) with OVCAR-8; > 100 µM (inactive) in the test on T47D; 0.0622 µM (active) in the test on HOP-92.

For `Cc1n(Cc2ccccc2)c2c([n+]1C)C(=O)c1ccccc1C2=O`, the GI50 in the test with SK-MEL-28 was 0.0948 µM (active); in the test with HCT-15, 2.56 µM; in the test on HCC 2998, 0.236 µM (active); in the test with NCI/ADR-RES, 21.1 µM (inactive); in the test with KM12, 0.0605 µM (active); in the test on PC-3, 0.0838 µM (active). Besides, the GI50 with IGROV-1 is 0.0301 µM (active); with SK-OV-3, 0.389 µM (active); in the test with RPMI-8226, 0.0296 µM (active); in the test on SNB-19 it was 0.0581 µM (active); in the test with NCI-H522, 0.027 µM (active); with Hs-578T, 0.415 µM (active). In addition, the GI50 in the test on RXF 393 was 0.294 µM (active); in the test with SF-268, 0.0274 µM (active); in the test with UO-31, 4.57 µM (inactive); in the test with OVCAR-8, 0.0431 µM (active); in the test on T47D, 0.215 µM (active); with HOP-92, 0.369 µM (active).

Turning to `COC1CC(OC(=O)c2ccccc2)C(OC(=O)c2ccccc2)C(C)O1` (stereo not drawn), the GI50 with SK-MEL-28 is > 100 µM (inactive); in the test with HCT-15, > 100 µM; in the test on HCC 2998 it was > 100 µM (inactive); in the test on NCI/ADR-RES, > 100 µM (inactive); in the test with KM12, > 100 µM (inactive); with PC-3, > 100 µM (inactive). In addition, the GI50 is > 100 µM (inactive) with IGROV-1; > 100 µM (inactive) in the test on SK-OV-3; > 100 µM (inactive) in the test with RPMI-8226; > 100 µM (inactive) with SNB-19; > 100 µM (inactive) in the test on NCI-H522; 59.8 µM (inactive) in the test with Hs-578T. The GI50 was > 100 µM (inactive) with RXF 393; > 100 µM (inactive) in the test on SF-268; > 100 µM (inactive) in the test on UO-31; > 100 µM (inactive) in the test with OVCAR-8; > 100 µM (inactive) in the test with T47D; 19.3 µM (inactive) in the test on HOP-92.

In the case of `O=c1oc2ccccc2cc1/C=N/N1C(=S)N(c2ccccc2)C(=N\c2ccccc2)/C1=N/c1ccccc1`, the GI50 was > 100 µM (inactive) in the test with SK-MEL-28; > 100 µM in the test on HCT-15; > 100 µM (inactive) in the test with HCC 2998; > 100 µM (inactive) in the test with NCI/ADR-RES; > 100 µM (inactive) in the test with KM12; 14 µM (inactive) in the test on PC-3. The GI50 in the test on IGROV-1 is > 100 µM (inactive); with SK-OV-3, > 100 µM (inactive); in the test on RPMI-8226, > 100 µM (inactive); with SNB-19, > 100 µM (inactive); in the test on NCI-H522, 34 µM (inactive); in the test on Hs-578T, > 100 µM (inactive). The GI50 was 26.4 µM (inactive) in the test on RXF 393; > 100 µM (inactive) in the test with SF-268; > 100 µM (inactive) in the test with UO-31; 34.6 µM (inactive) with OVCAR-8; 3.49 µM (inactive) in the test with T47D; > 100 µM (inactive) in the test with HOP-92.

As to `COc1cc(C2c3cc4c(cc3OC(NN)C2C)OCO4)cc(OC)c1OC` (stereo not drawn), the GI50 in the test with SK-MEL-28 was 50.8 µM (inactive); in the test with HCT-15, 0.406 µM; with HCC 2998, 0.536 µM (active); in the test on NCI/ADR-RES, 1.06 µM (active); in the test on KM12, 0.466 µM (active); in the test on PC-3 it was 0.556 µM (active). For the same compound, the GI50 is 1.46 µM (inactive) in the test on IGROV-1; 1.38 µM (inactive) with SK-OV-3; 0.289 µM (active) in the test on RPMI-8226; 0.813 µM (active) with SNB-19; 0.869 µM (active) with NCI-H522; 0.234 µM (active) in the test with Hs-578T. In addition, the GI50 in the test with RXF 393 was 0.593 µM (active); in the test on SF-268 it was 2.5 µM (inactive); in the test with UO-31, 6.85 µM (inactive); in the test with OVCAR-8, 1.93 µM (inactive); with T47D, 87.3 µM (inactive); in the test with HOP-92 it was 2.04 µM (inactive).

Consider `CSC(=S)Nc1cc(C)cc(C)n1`, for which the GI50 was > 31.6 µM (inactive) in the test on SK-MEL-28; > 31.6 µM in the test with HCT-15; > 31.6 µM (inactive) in the test on HCC 2998; > 31.6 µM (inactive) in the test with NCI/ADR-RES; > 31.6 µM (inactive) in the test on KM12; > 31.6 µM (inactive) in the test with PC-3. The GI50 with IGROV-1 is > 100 µM (inactive); with SK-OV-3, > 31.6 µM (inactive); with RPMI-8226, > 31.6 µM (inactive); in the test with SNB-19, > 31.6 µM (inactive); in the test with NCI-H522 it was 18.7 µM (inactive); in the test with Hs-578T it was > 31.6 µM (inactive). Moreover, the GI50 with RXF 393, with SF-268, in the test on UO-31, in the test with OVCAR-8, with T47D and in the test on HOP-92 was > 31.6 µM (inactive) each time.

On to `Cc1cc(=O)n2c3c(c4c(cc13)c(CN(C)C)cc(=O)n4C)OC2`, for which the GI50 is 31.8 µM (inactive) with SK-MEL-28; 6.15 µM in the test with HCT-15; 6.93 µM (inactive) in the test on HCC 2998; 15 µM (inactive) in the test on NCI/ADR-RES; 14.7 µM (inactive) in the test with KM12; 19.9 µM (inactive) in the test on PC-3. Further, the GI50 in the test with IGROV-1 was 9.51 µM (inactive); with SK-OV-3 it was 26.8 µM (inactive); in the test with RPMI-8226 it was 25.2 µM (inactive); with SNB-19 it was 15.8 µM (inactive); in the test with NCI-H522, 0.9 µM (active); with Hs-578T it was 12.4 µM (inactive). Also, the GI50 was 6.56 µM (inactive) in the test on RXF 393; 15.5 µM (inactive) with SF-268; 8.04 µM (inactive) with UO-31; 9.1 µM (inactive) with OVCAR-8; 38.5 µM (inactive) in the test with T47D; 28.5 µM (inactive) with HOP-92.

Take `Clc1ccc(CCNCCNC2(c3cc4ccccc4s3)CCCCC2)cc1Cl`: the GI50 is 1.79 µM (inactive) in the test with SK-MEL-28; 1.92 µM in the test with HCT-15; 1.5 µM (inactive) in the test with HCC 2998; 1.8 µM (inactive) in the test with NCI/ADR-RES; 1.6 µM (inactive) in the test on KM12; 1.73 µM (inactive) with PC-3. Besides, the GI50 in the test with IGROV-1 is 1.81 µM (inactive); in the test on SK-OV-3 it was 1.46 µM (inactive); with RPMI-8226 it was 2.34 µM (inactive); in the test with SNB-19, 1.92 µM (inactive); in the test on NCI-H522, 1.84 µM (inactive); in the test with Hs-578T, 2.05 µM (inactive). The GI50 with RXF 393 was 2.01 µM (inactive); in the test with SF-268 it was 1.79 µM (inactive); with UO-31, 1.85 µM (inactive); in the test on OVCAR-8 it was 1.84 µM (inactive); with T47D, 1.95 µM (inactive); in the test on HOP-92 it was 1.68 µM (inactive).
